Test results as given in patent US20230248726A1, “PHARMACEUTICAL COMPOSITION AND APPLICATION THEREOF” (SHANGHAI RAISING PHARMACEUTICAL CO., LTD., priority 2020, published 2023).
Where a name gives a salt, the structure may show the parent alone.

System: APP/PS1/Tau mice
Experiment: Morris water maze test
Assay type: in vivo
Settings: for Time in the target quadrant / Times of crossing over the platform / latent period: APP/PS1/Tau mice, intragastric daily for 8 weeks, testing Day 6, n = 10, BTMP 200 mg/kg, VB1 200 mg/kg, donepezil hydrochloride 1.5 mg/kg, ½BTMP 100 mg/kg; for spatial memory and learning ability of the AD mice (result in words): Morris water maze, compared with the model group
Source text: In water, rodents have a strong motivation to escape from the water environment, and can escape from the water environment in the fastest and most direct way. The process of learning to escape from the water environment reflects the learning ability of animals. Spatial positioning according to the surrounding environment and swimming to a safe place in the water (such as a platform) on purpose can reflect the spatial learning and memory ability of animals.
The test animals were male APP/PS1/Tau mice and C57BL/6 wild type mice. The mice were 8 months old, weighing […], and purchased from The Jackson laboratory.
App/PS1/Tau mice are APP/PS1/tau triple transgenic Alzheimer's disease (3×Tg-AD) model mice, whose AO deposition occurs several months earlier than the pathological change of the tau protein, and can more realistically simulate the clinical process and pathological changes of Alzheimer's disease.
Preparation of a 10 mg/ml vitamin B1 solution (dosage: 200 mg/kg): 500 mg of vitamin B1 was weighed, and 0.7% m/v CMC-Na was added to reach 50 ml, to obtain a 10 mg/ml solution.
Preparation of a 10 mg/ml BTMP suspension (dosage: 200 mg/kg): 500 mg of BTMP was weighed, and 0.7% m/v CMC-Na was added to reach 50 ml, to obtain a 10 mg/ml BTMP suspension.
Preparation of a 0.075 mg/ml donepezil hydrochloride suspension (dosage: 1.5 mg/kg): one donepezil hydrochloride tablet (containing 5 mg donepezil hydrochloride) was ground, and 0.7% m/v CMC-Na was added to reach 66.67 ml, to obtain a 0.075 mg/ml donepezil hydrochloride suspension.
(§1) Preparation of a 10 mg/ml BTMP suspension+0.075 mg/ml donepezil hydrochloride suspension (dosage: 200 mg/kg BTMP suspension+1.5 mg/kg donepezil hydrochloride suspension): a 20 mg/ml BTMP suspension and a 0.15 mg/ml donepezil hydrochloride suspension were respectively prepared, and equal volumes were evenly mixed before administration, to obtain a 10 mg/ml BTMP suspension+0.075 mg/ml donepezil hydrochloride suspension.
as §1, with “5” for “10”, “100” for “200”, “10” for “20”
The mice in the blank control group, the model group and the test groups were intragastrically administered according to the dosage/specification in 2.2. for 8 weeks, and the water maze training and testing were started in the last week of the administration. The water maze training and testing lasted for 6 days, with 5 days of training and 1 day of testing. In addition, during the water maze training and testing period (6 days in total), conditions such as the indoor lighting etc. were kept constant, and the room was kept quiet, so as to eliminate the interference of the environment and personnel.
(1) Pre-test preparation: an appropriate amount of water was placed in a water maze pool with water temperature being kept at 22±3° C., a platform was placed at a fixed position (the target quadrant) and 1 cm below the water surface, and titanium dioxide was added until water color was white, and the platform could not be seen clearly.
(2) Training period (Day 1 to Day 5): each mouse was placed on the platform for 15 s (to increase the mouse's sense of security on the platform) prior to the first quadrant training on each day, and then the mouse was placed in the quadrant where the platform located in the pool (head towards the wall), and a swimming time of 60 s was set. If it found the platform within 60 s and stayed for 5 s, it was considered as a success in finding the platform.
After the first quadrant training, the training in the remaining three quadrants was performed in turn, wherein it is not necessary to place the mice on the platform and hold for 15 s before training.

SMILES | Time in the target quadrant | Times of crossing over the platform | latent period | spatial memory and learning ability of the AD mice (result in words)
C/C(=C(\CCOP(=O)(O)O)SC(=O)c1ccccc1)N(C=O)Cc1cnc(C)nc1N [BTMP, S-2-[[(2-methyl-4-amino-5-pyrimidinyl)methyl]formylamino]-5-phosphonooxy-2,3-pentenyl-3-mercaptobenzoate] | 14.96 ± 1.50 s | 2.10 ± 0.74 | 26.10 ± 1.85 s | significantly improved
COc1cc2c(cc1OC)C(=O)C(CC1CCN(Cc3ccccc3)CC1)C2 (stereo not drawn) [Donepezil hydrochloride, donepezil hydrochloride] | 14.44 ± 1.11 s | 1.80 ± 0.79 | 27.80 ± 2.04 s | significantly improved
Cc1ncc(C[n+]2csc(CCO)c2C)c(N)n1 [VB1, vitamin B1] | 11.87 ± 1.17^*#& s | 1.00 ± 0.67^*& | 35.10 ± 4.09^*#& s | did not significantly improve
